{"source": "ChEMBL document CHEMBL6177930", "about": "“2-(4-Bromobenzyl) tethered 4-amino aryl/alkyl-5,6,7,8-tetrahydrobenzo[4,5]thieno[2,3-d]pyrimidines: design, synthesis, anticancer assessment via dual topoisomerase-I/II inhibition, and in silico studies” (RSC Med Chem, 2025)", "key": {"FaDu [1]": {"tested_on": "FaDu", "experiment": "Induction of autophagy in human FaDu cells assessed as increase in acidic vesicular organelles measured after 48 hrs by acridine orange staining based fluorescence microscopy analysis", "type": "functional, cell-based", "conditions": "dose 1-5 µM"}, "FaDu [2]": {"tested_on": "FaDu", "experiment": "Induction of apoptosis in human FaDu cells assessed as appearance of deformed cell membrane at 1 to 5 uM by DAPI staining based analysis", "type": "functional", "conditions": "dose 1-5 µM"}, "FaDu [3]": {"tested_on": "FaDu", "experiment": "Antiproliferative activity against human FaDu cells assessed as inhibition of cell growth at 10 uM measured after 48 to 72 hrs by MTT assay relative to control", "type": "functional", "conditions": "time 48-72 hrs"}, "HEK293": {"tested_on": "HEK293", "experiment": "Antiproliferative activity against HEK293 cells assessed as inhibition of cell growth at 10 to 25 uM measured after 48 to 72 hrs by MTT assay", "type": "toxicity, cell-based", "conditions": "human, hek293, 25 µM; dose lower 10 µM, time lower 48 hrs, dose upper 25 µM, time upper 72 hrs"}, "FaDu [4]": {"tested_on": "FaDu", "experiment": "Induction of morphological changes in human FaDu cells assessed as reduction in cell density at 2 to 5 uM incubated for 48 hrs by bright field microscope based analysis", "type": "functional", "conditions": "dose 2-5 µM"}, "FaDu [5]": {"tested_on": "FaDu", "experiment": "Induction of morphological changes in human FaDu cells assessed as appearance of detached cells at 2 to 5 uM incubated for 48 hrs by bright field microscope based analysis", "type": "functional, cell-based", "conditions": "dose 2-5 µM"}, "FaDu [6]": {"tested_on": "FaDu", "experiment": "Induction of morphological changes in human FaDu cells assessed as cell membrane blebbing at 2 to 5 uM incubated for 48 hrs by bright field microscope based analysis", "type": "functional", "conditions": "dose 2-5 µM"}, "FaDu [7]": {"tested_on": "FaDu", "experiment": "Induction of apoptosis in human FaDu cells assessed as nuclear fragmentation at 1 to 5 uM by DAPI staining based analysis", "type": "functional, cell-based", "conditions": "dose 1-5 µM"}, "FaDu [8]": {"tested_on": "FaDu", "experiment": "Inhibition of cell migration in human FaDu cells assessed as reduction in wound closure at 1 uM measured after 48 hrs by bright field microscopic analysis relative to control", "type": "functional"}, "FaDu [9]": {"tested_on": "FaDu", "experiment": "Inhibition of cell migration in human FaDu cells assessed as reduction in wound closure at 5 uM measured after 48 hrs by bright field microscopic analysis relative to control", "type": "functional"}, "FaDu [10]": {"tested_on": "FaDu", "experiment": "Inhibition of colony formation in human FaDu cells assessed as reduction in colony formation incubated for 48 hrs crystal violet staining based analysis", "type": "functional, cell-based", "conditions": "dose 1-5 µM"}, "FaDu [11]": {"tested_on": "FaDu", "experiment": "Upregulation of cleaved caspase-3 level in human FaDu cells measured after 48 hrs by Western blot analysis", "type": "functional, cell-based", "conditions": "dose 1-5 µM"}, "MCF7 [12]": {"tested_on": "MCF7", "experiment": "Inhibition of oxidative stress in human MCF7 cells assessed as reduction in ROS production incubated for 24 hrs by DCFH-DA staining based flow cytometry analysis", "type": "functional, cell-based"}, "MCF7 [13]": {"tested_on": "MCF7", "experiment": "Induction of cell cycle arrest in human MCF7 cells assessed as accumulation of cells at G0/G1 phase measured after 24 hrs by PI staining based flow cytometry analysis (reference value: 45.2%)", "type": "functional"}, "[14]": {"biological_target": "T1, DNA topoisomerase 1 (Homo sapiens) (UniProt P11387)", "T1 sequence (whole entry)": "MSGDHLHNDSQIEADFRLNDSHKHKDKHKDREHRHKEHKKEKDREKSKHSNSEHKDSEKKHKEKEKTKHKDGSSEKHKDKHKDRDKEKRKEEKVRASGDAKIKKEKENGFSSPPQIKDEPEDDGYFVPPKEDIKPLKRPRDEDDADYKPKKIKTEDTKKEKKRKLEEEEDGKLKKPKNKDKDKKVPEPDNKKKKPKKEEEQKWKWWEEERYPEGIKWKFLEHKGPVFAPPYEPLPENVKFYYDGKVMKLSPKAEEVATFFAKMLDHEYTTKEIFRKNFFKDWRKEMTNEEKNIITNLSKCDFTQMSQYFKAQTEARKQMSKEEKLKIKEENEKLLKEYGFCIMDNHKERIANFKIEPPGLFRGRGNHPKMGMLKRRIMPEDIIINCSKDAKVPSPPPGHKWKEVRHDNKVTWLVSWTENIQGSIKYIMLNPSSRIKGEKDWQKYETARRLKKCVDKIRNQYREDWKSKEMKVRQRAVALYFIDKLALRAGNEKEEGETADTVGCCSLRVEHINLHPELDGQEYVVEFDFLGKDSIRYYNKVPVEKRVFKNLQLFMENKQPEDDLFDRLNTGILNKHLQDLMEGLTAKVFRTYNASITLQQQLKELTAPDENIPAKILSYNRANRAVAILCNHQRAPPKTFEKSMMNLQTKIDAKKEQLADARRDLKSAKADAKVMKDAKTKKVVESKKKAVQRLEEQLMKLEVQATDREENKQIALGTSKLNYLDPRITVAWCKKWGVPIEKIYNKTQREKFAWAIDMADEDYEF", "experiment": "Inhibition of human topoisomerase-I extracted from baculovirus expression system using SC-DNA as substrate incubated for 30 mins by EtBr staining based agarose gel electrophoresis method"}}, "note": "The source made the active and inactive calls. The calls are words filed in the database; no cut-off is given here."}
{"smiles": "Brc1ccc(Cc2nc(N3CCN(c4ccncc4)CC3)c3c4c(sc3n2)CCCC4)cc1", "values": [{"measurement": "Activity", "setting": "FaDu [1]", "value": "Dose-dependent-effect"}, {"measurement": "Activity", "setting": "FaDu [2]", "value": "Active"}, {"measurement": "inhibition at 10 µM", "setting": "FaDu [3]", "value": 83.5, "unit": "%"}, {"measurement": "Activity", "setting": "HEK293", "value": "Non-toxic"}, {"measurement": "Activity", "setting": "FaDu [4]", "value": "Active"}, {"measurement": "Activity", "setting": "FaDu [5]", "value": "Active"}, {"measurement": "Activity", "setting": "FaDu [6]", "value": "Active"}, {"measurement": "Activity", "setting": "FaDu [7]", "value": "Active"}, {"measurement": "inhibition at 1 µM", "setting": "FaDu [8]", "value": 64.7, "unit": "%"}, {"measurement": "inhibition at 5 µM", "setting": "FaDu [9]", "value": 24.4, "unit": "%"}, {"measurement": "inhibition", "setting": "FaDu [10]", "value": "Dose-dependent-effect"}, {"measurement": "Activity", "setting": "FaDu [11]", "value": "Dose-dependent-effect"}, {"measurement": "inhibition", "setting": "MCF7 [12]", "value": "Active"}, {"measurement": "Activity", "setting": "MCF7 [13]", "value": 20.2, "unit": "%"}, {"measurement": "inhibition", "setting": "[14]", "value": "Active; Compound Showed Potent Inhibition Activity Than Camptothecin"}]}
